Test results taken from paper PMC9617675 (Antiviral Research, 2022).
Where two headings read alike, the source gives them in different places.

Test system: SARS-CoV-2 Delta variant
Details: for lung histopathology (H&E): day 2 and day 4; for brain histopathology (H&E): day 4
[1] = day 4, both 100 mpk and 200 mpk groups

O=C[C@H](C[C@@H]1CCNC1=O)NC(=O)[C@H](CC1CCCCC1)NC(=O)c1cc2ccccc2[nH]1 [FB2001]
change in the body weight of the mice (100 mpk and 200 mpk groups, vs day 0): no significant change
reduction of lung viral load (100 mpk, day 2, vs vehicle): 1.02 log10 copies/g
lung histopathology (H&E) (100 mpk): mild interstitial inflammatory cell infiltration
brain histopathology (H&E) (100 mpk): some neurons were denatured
reduction of brain viral load (100 mpk, day 4, vs vehicle): 2.37 log10 copies/g
reduction of lung viral load (100 mpk, day 4, vs vehicle): 0.67 log10 copies/g
reduction of lung viral load (200 mpk, day 2, vs vehicle): 1.60 log10 copies/g
reduction of virus titer in lung (200 mpk, day 2, vs vehicle): 3.57 log10 PFU/g
lung histopathology (H&E) (200 mpk): decreased inflammation and normal alveolar spaces
brain histopathology (H&E) (200 mpk): Neuronal cells were neatly arranged and abundant
reduction of brain viral load (200 mpk, day 4, vs vehicle): 5.26 log10 copies/g
reduction of lung viral load (200 mpk, day 4, vs vehicle): 1.14 log10 copies/g
brain immunohistochemistry staining of viral NP [1]: nearly cleared
lung immunohistochemistry staining of viral NP [1]: almost cleared
Viral titer in brain, Mean (mouse, in vivo): below the detection limit
Viral titer in lung, Mean (mouse, in vivo): below the detection limit
